Experimental findings from US5446065A, “Sulfonamides of phenylalkylamines or phenoxyalkylamines processes for their preparation and medicaments containing these compounds” (Boehringer Mannheim GmbH, priority 1990, dated 1995) are described below.

Molecules are shown by their SMILES.

Test [1] relates to U 46619-caused lung embolism. The test can be described thus: Prevention of the U 46619-caused lung embolism (survival). The class given is in vivo, male NMRI mice. Particulars: po, mouse, stomach probe, U 46619 injected 4 h later (800-1000 μg/kg, tail vein), read-out: survival rate of mouse 1 mg/kg after 4 h. As to the method: 2. Prevention of the U 46619-caused lung embolism
Male NMRI mice of about 25 g body weight are used. The test substance is suspended in 1% methyl cellulose solution and administered to the experimental animals by means of a stomach probe. The provocation test consists in that a dose lethal for the control animals (800-1000 μg/kg) of the thromboxane mimetic (U 46619 of the firm Upjohn) is rapidly injected into the tail vein. The period of the specific antagonistic action is tested in that the animals are pre-treated with 1 mg/kg of the various test substances and the injection of U 46619 takes place after 4 h. The survival rate indicates what percent of the animals used survive the injection of the thromboxane mimetic.

Test [2] relates to U46619-induced bronchospasm of the guinea pig. The test can be described thus: Inhibition of the U 46619-induced bronchospasm of the anaesthetised guinea pig. In kind it is in vivo. Particulars: Cavia porcellus, iv, 10 min, test substance i.v., 10 μg/kg U 46619 i.v., AUC over 10 min, read-out: ID50 of U46619-induced bronchospasm of the guinea pig. As to the method:
3. Inhibition of the U 46619-induced bronchospasm of the anaesthetised guinea pig
Guinea pigs are anaesthetised with narcoren and provided with a jugular vein catheter and a tracheal canula. The animals are mechanically respirated with atmospheric air with 1 ml/100 g body weight. The tracheal canula is connected via a three-way stopcock with a Stathem pressure element which takes up the pressure resulting by the contraction of the smooth musculature in the trachea and passes on to a recorder via a measuring bridge. After achievement of a constant basal tonus, the animals receive 10 μg/kg U 46619 i.v. administered via the jugular vein catheter. The dose induces a rapidly increasing bronchospasm which, after about 10 minutes, again subsides and is very readily reproducable. After 15 minutes follows a second administration of 10 μg/kg U 46619, in the course of which, after 5 minutes, the test substance is given i.v. in various doses. After a further 15 minutes, the same dose of U 46619 is again injected. The areas under the curve over 10 min of the administration 1 and 3 are determined planimetrically on a Kontron-Videoplan unit and the bronchospasm after administration 3 calculated in percentage of the bronchospasm after administration 1. The ID50 of the test substance can be determined from the quotients.

Test [3] deals with pre-contracted isolated rat aortas. The test can be described thus: TX-antagonistic action: inhibition of contraction of the isolated rat aorta ring pre-contracted with U 46619. The class given is cell-based. Particulars: aorta rings precontracted with 0.3 μmol/l U 46619, cumulative addition, 37° C. As to the method: 1. TX-antagonistic action on the isolated rat sorts ring pre-contracted with U 46619
The isolated rat sorts freed from surrounding connective tissue is cut up into equally wide rings and superinfused in a 10 ml organ bath with Krebs-Hanseleit buffer at 37° C. After about 45 min., equilibration time, the sorts rings are precontracted with 0.3 μmol/l U 46619, a stable analogue of the prostaglandin endoperoxide PGH2 (Upjohn & Co., Kalamazoo, USA). U 46619 was characterised as selective thromboxane mimetic (Coleman et al., Brit. J. Pharmacol. 68, 127P, 1980). As soon as a stable plateau is reached (after about 15 min.), the test substance is added cumulatively directly into the organ bath to the aorta ring, beginning with 10 nmol/l, until either an end concentration of 100 μmol/l is reached or the contraction is completely antagonised. There is calculated the particular percentage inhibition of the contraction by the test substance. From the concentration-action curves is determined the IC50, i.e. the half maximum inhibiting concentration.

By IC50 is commonly meant the concentration needed to halve the response being measured. Low values mean greater potency, high ones weaker potency. For `O=C(COc1cccc(CCNS(=O)(=O)c2ccc(Cl)cc2)c1)N1CCCCC1` [Ex. 1 d, 3-[2-(4-chlorophenylsulphonylamino)-ethyl]-phenoxyacetylpiperidide], the responders at 1 mg/kg in test [1] came to 100%. Further, the ED50 in test [2] worked out at 0.5 mg/kg. Besides, in test [3], the half-maximal inhibitory concentration (IC50) amounted to 3400 nM.

As to `O=C(COc1cccc(CCNS(=O)(=O)c2ccc(Cl)cc2)c1)NCCO` [Ex. 1 f, 3-[2-(4-chlorophenylsulphonylamino)-ethyl]-phenoxyacetic acid (2-hydroxyethylamide)], the responders at 1 mg/kg in test [1] turned out to be 100%. Besides, in test [2], the ED50 was found to be 0.02 mg/kg. This compound also displayed a concentration for half-maximal inhibition (IC50) in test [3] of 1600 nM.

`O=C(COc1cccc(CCNS(=O)(=O)c2ccc(Cl)cc2)c1)N(CCO)CCO` [Ex. 1 g, 3-[2-(4-chlorophenylsulphonylamino)-ethyl]-phenoxyacetic acid 2-[bis-(2-hydroxyethyl)-amide]]: in test [1], the responders at 1 mg/kg turned out to be 100%. Moreover, the ED50 in test [2] is 0.04 mg/kg. In test [3], the IC50 stood at 1600 nM.

For the compound `O=C(COc1ccc(CCNS(=O)(=O)c2ccc(Cl)cc2)cc1)Nc1cccnc1` [Ex. 1 r, 4-[2-(4-chlorophenylsulphonylamino)-ethyl]-phenoxyacetic acid (3-pyridyl)-amide], the responders at 1 mg/kg in test [1] amounted to 90%. For the same compound, the ED50 in test [2] was 0.02 mg/kg. In test [3], this compound returned an IC50 of 1000 nM.

In the case of `CCNC(=O)COc1cccc(CCNS(=O)(=O)c2ccc(Cl)cc2)c1` [Ex. 2 a, 3-[2-(4-chlorophenylsulphonylamino)-ethyl]-phenoxyacetic acid ethylamide], the responders at 1 mg/kg in test [1] turned out to be 100%. Moreover, in test [2], the ED50 is 0.01 mg/kg. Besides, the 50% inhibitory concentration (IC50) in test [3] amounted to 1800 nM.

`NCCCc1ccc(CCNS(=O)(=O)c2ccc(Cl)cc2)cc1` [Ex. 4 m, 1-[4-[2-(4-chlorophenylsulphonylamino)-ethyl]-phenyl]-3-aminopropane]: the responders at 1 mg/kg in test [1] was 100%. Further, the ED50 in test [2] amounted to 0.05 mg/kg. This compound also returned a 50% inhibitory concentration (IC50) in test [3] of 3000 nM.

On to `NCCCCc1ccc(CCNS(=O)(=O)c2ccc(Cl)cc2)cc1` [Ex. 4 s, 1-[4-[2-(4-chlorophenylsulphonylamino)-ethyl]-phenyl]-4-aminobutane], for which the responders at 1 mg/kg in test [1] amounted to 90%. In addition, the ED50 in test [2] stood at 0.1 mg/kg. This compound also showed an IC50 in test [3] of 2600 nM.

Regarding `NCCOc1cccc(CCNS(=O)(=O)c2ccc(Cl)cc2)c1` [Ex. 4, 1-[3-[2-(4-Chlorophenylsulphonylamino)-ethyl]-phenoxy]-2-aminoethane], the responders at 1 mg/kg in test [1] is 100%. The ED50 in test [2] was 0.01 mg/kg. Further, the IC50 in test [3] amounted to 340 nM.

In the case of `NCCc1ccc(CCNS(=O)(=O)c2ccc(Cl)cc2)cc1` [Ex. 5, 1-[4-[2-(4-Chlorophenylsulphonylamino)-ethyl]-phenyl]-2-aminoethane], the responders at 1 mg/kg in test [1] came out at 100%. The ED50 in test [2] amounted to 0.05 mg/kg. This compound registered an IC50 in test [3] of 100 nM.
